Several values for one entry are separate records, joined by “and”; a condition that tells them apart may be missing. Equal entries are not always repeated.
system: LAT1; assay: not given; details: Xenopus laevis oocytes; cited from earlier work

SMILES	Km
N[C@H](Cc1ccccc1)C(=O)O [Compound 50-D, D-Phe]	121 µM
N[C@@H](Cc1ccccc1)C(=O)O [Compound 50, L-phenylalanine, reference compound]	14.2 µM

biological target: T1, human LAT1 (Homo sapiens, UniProt Q01650); assay: not given; type: cell-based; details: 200 μM, 3 min; average of seven experiments
T1 sequence (Q01650 whole entry): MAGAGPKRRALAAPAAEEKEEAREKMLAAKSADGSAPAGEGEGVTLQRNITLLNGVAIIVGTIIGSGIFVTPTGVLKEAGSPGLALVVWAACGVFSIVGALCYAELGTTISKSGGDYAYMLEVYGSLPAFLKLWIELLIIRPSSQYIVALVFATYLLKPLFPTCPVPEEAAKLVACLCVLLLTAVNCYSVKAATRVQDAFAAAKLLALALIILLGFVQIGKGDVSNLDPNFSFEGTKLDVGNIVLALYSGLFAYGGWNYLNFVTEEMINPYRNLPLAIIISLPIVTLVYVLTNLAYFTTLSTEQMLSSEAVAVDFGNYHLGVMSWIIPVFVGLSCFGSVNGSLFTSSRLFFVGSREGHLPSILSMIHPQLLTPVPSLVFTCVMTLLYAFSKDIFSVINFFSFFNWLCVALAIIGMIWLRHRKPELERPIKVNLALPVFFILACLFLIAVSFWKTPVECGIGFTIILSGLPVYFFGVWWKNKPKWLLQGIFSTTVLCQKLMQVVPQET
T1 sequence (P08195 102-630 partner): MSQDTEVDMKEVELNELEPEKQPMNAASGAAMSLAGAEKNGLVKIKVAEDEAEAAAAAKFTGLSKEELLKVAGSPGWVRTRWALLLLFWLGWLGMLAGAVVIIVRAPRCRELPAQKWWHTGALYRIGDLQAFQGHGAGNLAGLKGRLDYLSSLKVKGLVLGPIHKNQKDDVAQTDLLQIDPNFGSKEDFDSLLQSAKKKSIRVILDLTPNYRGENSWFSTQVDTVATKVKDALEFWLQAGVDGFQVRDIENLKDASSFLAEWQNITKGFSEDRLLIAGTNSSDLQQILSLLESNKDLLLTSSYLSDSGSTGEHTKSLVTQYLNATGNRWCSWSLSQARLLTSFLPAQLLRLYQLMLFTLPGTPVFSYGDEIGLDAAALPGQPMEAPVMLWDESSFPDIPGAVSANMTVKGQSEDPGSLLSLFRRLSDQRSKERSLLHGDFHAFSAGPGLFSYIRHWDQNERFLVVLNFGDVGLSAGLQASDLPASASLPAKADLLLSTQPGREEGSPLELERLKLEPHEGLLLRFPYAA

efflux rate of [3H]-gabapentin	SMILES
2.7 fmol/min and 2.7 ± 0.3 fmol/min	N[C@@H](Cc1ccccc1)C(=O)O [Compound 50, L-phenylalanine, reference compound]

same assay, conditions: based on trans-stimulation assay

LAT1 substrate activity (in words)	SMILES
substrates of LAT1	N[C@@H](Cc1cccc(C(=O)OCCO)c1)C(=O)O [Compound 82]
LAT1 substrates	NCc1cccc(C[C@H](N)C(=O)O)c1 [Compound 74]
LAT1 substrates	N[C@@H](Cc1cccc(C(=O)O)c1)C(=O)O [Compound 83]
inactive	NC(Cc1ccccc1)(Cc1ccccc1)C(=O)O [Compound 93]
nonsubstrates	N[C@@H](Cc1cccc(CC(=O)O)c1)C(=O)O [Compound 84]
lost all activity	CSCC[C@@](N)(Cc1ccccc1)C(=O)O [Compound 98-D]

The next lines start with the molecule.

SMILES	LAT1 substrate activity (in words)
N[C@@H](CCC(=O)O)C(=O)O [Compound 57, L-Glu, reference compound]	none of which were LAT1 substrates
CC(C)(C)OC(=O)c1cccc(C[C@H](N)C(=O)O)c1 [Compound 81]	substrates of LAT1
N[C@@H](Cc1cn(Cc2ccccc2)cn1)C(=O)O [Compound 59, benzyl histidine]	substrates
COC(=O)c1cccc(C[C@@H](N)C(=O)O)c1 [Compound 79-D]	potentially not a substrate
COC(=O)c1cc(C)cc(C[C@H](N)C(=O)O)c1 [Compound 63]	lost activity relative to their parent compounds
Cc1cc(C[C@H](N)C(=O)O)cc(C(=O)O)c1 [Compound 64]	lost activity relative to their parent compounds
N[C@@](Cc1ccccc1)(Cc1c[nH]cn1)C(=O)O [Compound 107]	inactive
CC(N)(Cc1ccccc1)C(=O)O (stereo in doubt) [Compound 92-D, α-methyl phenylalanine]	substrates
NCCCC[C@H](N)C(=O)O [Compound 55, L-Lys, reference compound]	none of which were LAT1 substrates
C[C@](N)(Cc1ccccc1)C(=O)O [Compound 92, α-methyl phenylalanine]	substrates

biological target: T1, human LAT1; assay: cis-inhibition assay: inhibition of [3H]-gabapentin uptake into HEK-hLAT1 cells; type: cell-based; details: L vs D isomer

selectivity for the L isomers in cis-inhibition assay	SMILES
> 20 fold	CC(C)[C@H](N)C(=O)O [Compound 49, L-Val]
> 20 fold	N[C@@H](Cc1c[nH]cn1)C(=O)O [Compound 53, L-histidine]
> 20 fold	CC[C@H](C)[C@H](N)C(=O)O [Compound 47, L-Ile]

same assay, conditions: cis-inhibition

LAT1 ligand potency / affinity (in words)	SMILES
the most potent ligands	N[C@@H](Cc1cccc(-c2ccccc2)c1)C(=O)O [Compound 70]
the most potent ligands	N[C@@H](Cc1cccc(Cc2ccccc2)c1)C(=O)O [Compound 69]
